Data from patent US10844077B2, “Thiazolyl-containing compounds for treating proliferative diseases” (Dana-Farber Cancer Institute, Inc., priority 2014, dated 2020).

Legend:
Assay type in all cases: binding
[1] = target: broad panel of kinases (Homo sapiens, UniProt Q9P289); details: MST4; 1 μM
[2] = target: broad panel of kinases (Homo sapiens, UniProt P10721, V559D); details: KIT(V559D); 1 μM
[3] = target: broad panel of kinases (Homo sapiens, UniProt Q9UQM7); details: CAMK2A; 1 μM
[4] = target: broad panel of kinases (Homo sapiens, UniProt O00238); details: BMPR1B; 1 μM
[5] = target: broad panel of kinases (Homo sapiens, UniProt P00533, DEL746-750); details: EGFR(E746-A750del); 1 μM
Chain of broad panel of kinases (Homo sapiens, UniProt P00533, DEL746-750) (P00533 with tags, fused parts or gaps DEL746-750 limits assumed): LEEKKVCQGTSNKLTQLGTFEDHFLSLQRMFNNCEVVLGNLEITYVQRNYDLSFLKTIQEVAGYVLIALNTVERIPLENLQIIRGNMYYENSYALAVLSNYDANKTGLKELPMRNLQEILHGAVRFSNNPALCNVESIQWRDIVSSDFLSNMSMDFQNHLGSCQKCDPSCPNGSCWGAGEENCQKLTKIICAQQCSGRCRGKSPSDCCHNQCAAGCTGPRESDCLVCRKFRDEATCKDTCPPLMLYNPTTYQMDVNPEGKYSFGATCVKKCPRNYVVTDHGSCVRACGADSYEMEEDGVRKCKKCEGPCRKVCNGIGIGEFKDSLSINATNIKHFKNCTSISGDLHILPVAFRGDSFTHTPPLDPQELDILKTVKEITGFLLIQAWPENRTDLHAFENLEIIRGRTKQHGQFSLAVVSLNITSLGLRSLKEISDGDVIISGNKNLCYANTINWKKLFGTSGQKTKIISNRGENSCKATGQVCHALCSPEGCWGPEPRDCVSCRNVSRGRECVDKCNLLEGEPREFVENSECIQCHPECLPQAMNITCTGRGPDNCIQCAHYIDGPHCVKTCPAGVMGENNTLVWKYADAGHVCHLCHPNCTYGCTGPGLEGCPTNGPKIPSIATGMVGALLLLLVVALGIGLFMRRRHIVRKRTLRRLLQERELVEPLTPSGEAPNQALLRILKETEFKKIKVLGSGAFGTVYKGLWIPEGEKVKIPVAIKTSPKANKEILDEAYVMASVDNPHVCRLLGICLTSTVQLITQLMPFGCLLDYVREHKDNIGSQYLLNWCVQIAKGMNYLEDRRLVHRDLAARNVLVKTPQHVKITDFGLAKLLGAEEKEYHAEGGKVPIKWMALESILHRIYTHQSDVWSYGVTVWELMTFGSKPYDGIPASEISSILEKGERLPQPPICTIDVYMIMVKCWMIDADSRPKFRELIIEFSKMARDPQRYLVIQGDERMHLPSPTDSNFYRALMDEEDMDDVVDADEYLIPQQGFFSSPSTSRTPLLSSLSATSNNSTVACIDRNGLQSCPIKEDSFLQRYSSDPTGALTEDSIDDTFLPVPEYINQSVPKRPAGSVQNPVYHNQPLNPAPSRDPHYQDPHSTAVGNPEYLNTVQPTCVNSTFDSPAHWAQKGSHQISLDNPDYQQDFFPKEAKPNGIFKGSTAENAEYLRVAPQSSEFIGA

[6] = target: broad panel of kinases (Homo sapiens, UniProt P10721, D816V); details: KIT(D816V); 1 μM
Chain of broad panel of kinases (Homo sapiens, UniProt P10721, D816V) (P10721 26-976 D816V limits assumed): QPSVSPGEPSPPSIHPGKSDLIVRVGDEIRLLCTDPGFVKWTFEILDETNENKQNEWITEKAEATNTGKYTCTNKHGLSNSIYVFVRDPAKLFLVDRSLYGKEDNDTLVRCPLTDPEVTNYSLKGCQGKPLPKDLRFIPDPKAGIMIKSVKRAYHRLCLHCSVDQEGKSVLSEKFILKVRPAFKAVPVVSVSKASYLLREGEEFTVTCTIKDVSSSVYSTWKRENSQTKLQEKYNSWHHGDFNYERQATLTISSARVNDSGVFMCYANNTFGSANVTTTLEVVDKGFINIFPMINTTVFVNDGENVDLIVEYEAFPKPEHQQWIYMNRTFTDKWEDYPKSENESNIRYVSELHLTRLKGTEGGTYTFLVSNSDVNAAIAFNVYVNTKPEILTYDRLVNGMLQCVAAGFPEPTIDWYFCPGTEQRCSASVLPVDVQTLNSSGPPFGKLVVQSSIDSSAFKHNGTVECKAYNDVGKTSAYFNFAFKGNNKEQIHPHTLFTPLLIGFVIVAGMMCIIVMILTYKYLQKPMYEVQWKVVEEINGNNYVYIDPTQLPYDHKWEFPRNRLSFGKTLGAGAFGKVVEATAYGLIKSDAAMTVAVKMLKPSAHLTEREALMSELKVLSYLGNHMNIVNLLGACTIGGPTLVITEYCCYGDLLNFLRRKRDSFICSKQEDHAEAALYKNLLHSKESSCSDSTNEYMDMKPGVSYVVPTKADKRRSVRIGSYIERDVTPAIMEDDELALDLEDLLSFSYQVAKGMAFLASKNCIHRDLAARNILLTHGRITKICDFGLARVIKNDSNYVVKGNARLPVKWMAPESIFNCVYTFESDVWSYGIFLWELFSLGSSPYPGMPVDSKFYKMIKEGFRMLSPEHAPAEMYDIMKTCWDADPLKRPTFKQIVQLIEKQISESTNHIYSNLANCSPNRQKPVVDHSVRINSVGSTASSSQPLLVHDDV

[7] = target: broad panel of kinases (Homo sapiens, UniProt P06213); details: INSR; 1 μM
[8] = target: broad panel of kinases (Homo sapiens, UniProt P17612); details: PKAC-alpha; 1 μM
[9] = target: broad panel of kinases (Homo sapiens, UniProt Q8IW41)
[10] = target: broad panel of kinases (Homo sapiens, UniProt Q16512); details: PKN1; 1 μM
Chain of broad panel of kinases (Homo sapiens, UniProt Q16512) (Q16512 2-942 limits assumed): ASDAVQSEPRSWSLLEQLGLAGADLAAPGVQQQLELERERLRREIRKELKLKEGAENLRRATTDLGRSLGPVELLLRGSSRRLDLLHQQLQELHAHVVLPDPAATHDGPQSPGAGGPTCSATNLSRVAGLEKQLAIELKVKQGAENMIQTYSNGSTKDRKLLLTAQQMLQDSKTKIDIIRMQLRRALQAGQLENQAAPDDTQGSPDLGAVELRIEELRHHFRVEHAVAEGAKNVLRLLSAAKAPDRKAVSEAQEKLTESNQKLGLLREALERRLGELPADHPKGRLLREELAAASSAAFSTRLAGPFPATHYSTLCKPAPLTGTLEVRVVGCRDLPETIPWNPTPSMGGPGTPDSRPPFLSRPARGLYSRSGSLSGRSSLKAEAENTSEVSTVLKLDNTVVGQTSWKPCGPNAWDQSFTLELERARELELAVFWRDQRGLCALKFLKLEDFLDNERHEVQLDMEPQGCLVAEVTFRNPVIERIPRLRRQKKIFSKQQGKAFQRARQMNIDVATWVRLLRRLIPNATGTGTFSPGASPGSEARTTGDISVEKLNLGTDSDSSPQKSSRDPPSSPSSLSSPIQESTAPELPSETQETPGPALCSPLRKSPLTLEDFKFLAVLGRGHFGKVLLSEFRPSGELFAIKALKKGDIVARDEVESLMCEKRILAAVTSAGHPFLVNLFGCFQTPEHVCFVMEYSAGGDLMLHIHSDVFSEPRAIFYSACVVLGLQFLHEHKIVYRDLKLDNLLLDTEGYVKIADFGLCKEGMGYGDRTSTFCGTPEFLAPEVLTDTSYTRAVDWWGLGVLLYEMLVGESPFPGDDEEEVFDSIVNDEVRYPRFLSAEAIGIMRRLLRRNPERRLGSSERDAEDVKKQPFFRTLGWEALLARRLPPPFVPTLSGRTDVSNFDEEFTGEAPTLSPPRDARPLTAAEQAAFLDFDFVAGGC

[11] = target: broad panel of kinases (Homo sapiens, UniProt Q9BYP7); details: WNK3; 1 μM
[12] = target: broad panel of kinases (Homo sapiens, UniProt P36888, D835H); details: FLT3(D835H); 1 μM
[13] = target: broad panel of kinases (Homo sapiens, UniProt O14757); details: CHEK1; 1 μM
[14] = target: broad panel of kinases (Homo sapiens, UniProt Q04912); details: MST1R; 1 μM
Chain of broad panel of kinases (Homo sapiens, UniProt Q04912) (Q04912 25-304 limits assumed): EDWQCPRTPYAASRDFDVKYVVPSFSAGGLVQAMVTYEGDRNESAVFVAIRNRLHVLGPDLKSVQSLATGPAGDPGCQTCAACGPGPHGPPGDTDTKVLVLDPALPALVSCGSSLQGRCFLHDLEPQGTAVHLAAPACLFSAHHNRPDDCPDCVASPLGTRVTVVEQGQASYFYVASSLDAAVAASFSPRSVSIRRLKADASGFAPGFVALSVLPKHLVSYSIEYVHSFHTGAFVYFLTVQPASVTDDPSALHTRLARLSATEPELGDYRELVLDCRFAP
Chain of broad panel of kinases (Homo sapiens, UniProt Q04912) (Q04912 310-1400 limits assumed): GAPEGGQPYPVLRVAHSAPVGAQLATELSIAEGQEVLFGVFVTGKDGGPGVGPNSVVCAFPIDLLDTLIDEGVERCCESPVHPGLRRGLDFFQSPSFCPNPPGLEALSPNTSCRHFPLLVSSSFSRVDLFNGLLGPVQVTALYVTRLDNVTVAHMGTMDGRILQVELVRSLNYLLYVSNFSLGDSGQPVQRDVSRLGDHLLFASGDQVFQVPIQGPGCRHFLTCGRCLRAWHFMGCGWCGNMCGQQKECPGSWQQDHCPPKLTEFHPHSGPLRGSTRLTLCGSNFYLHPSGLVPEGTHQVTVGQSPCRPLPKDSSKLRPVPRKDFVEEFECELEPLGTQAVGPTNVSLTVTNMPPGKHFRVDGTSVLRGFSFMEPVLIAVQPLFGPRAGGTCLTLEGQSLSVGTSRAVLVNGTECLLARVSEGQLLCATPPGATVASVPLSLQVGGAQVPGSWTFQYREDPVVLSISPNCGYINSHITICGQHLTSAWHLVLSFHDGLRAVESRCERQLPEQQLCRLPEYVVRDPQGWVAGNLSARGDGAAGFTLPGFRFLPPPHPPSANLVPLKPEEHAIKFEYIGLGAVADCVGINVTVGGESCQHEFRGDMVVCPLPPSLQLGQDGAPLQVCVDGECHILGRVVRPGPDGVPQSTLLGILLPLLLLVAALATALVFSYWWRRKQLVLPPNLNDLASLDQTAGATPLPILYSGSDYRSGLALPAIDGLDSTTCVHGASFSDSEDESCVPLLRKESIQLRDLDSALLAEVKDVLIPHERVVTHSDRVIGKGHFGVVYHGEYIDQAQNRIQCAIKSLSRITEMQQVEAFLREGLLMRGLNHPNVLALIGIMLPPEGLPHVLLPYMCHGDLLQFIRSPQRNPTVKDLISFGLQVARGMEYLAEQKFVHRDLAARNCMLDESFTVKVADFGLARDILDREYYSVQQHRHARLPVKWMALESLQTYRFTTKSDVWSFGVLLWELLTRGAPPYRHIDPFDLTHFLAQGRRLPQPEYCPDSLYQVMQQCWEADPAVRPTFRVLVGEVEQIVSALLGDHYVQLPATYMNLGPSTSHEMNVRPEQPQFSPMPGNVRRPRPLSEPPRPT

[15] = target: broad panel of kinases (Homo sapiens, UniProt P42336, H1047L); details: PIK3CA(H1047L); 1 μM
[16] = target: broad panel of kinases (Homo sapiens, UniProt P51956); details: NEK3; 1 μM
[17] = target: broad panel of kinases (Homo sapiens, UniProt P30530); details: AXL; 1 μM
[18] = target: broad panel of kinases (Homo sapiens, UniProt Q99558); details: NIK; 1 μM
[19] = target: broad panel of kinases (Homo sapiens, UniProt P36888, K663Q); details: FLT3(K663Q); 1 μM
[20] = target: broad panel of kinases (Homo sapiens, UniProt P49760); details: CLK2; 1 μM
[21] = target: broad panel of kinases (Homo sapiens, UniProt P42336); details: PIK3CA; 1 μM
[22] = target: broad panel of kinases (Homo sapiens, UniProt Q9H2G2); details: SLK; 1 μM
[23] = target: broad panel of kinases (Homo sapiens, UniProt O76039); details: CDKL5; 1 μM
[24] = target: broad panel of kinases (Homo sapiens, UniProt Q9H3Y6); details: SRMS; 1 μM
[25] = target: broad panel of kinases (Homo sapiens, UniProt P21709); details: EPHA1; 1 μM
[26] = target: broad panel of kinases (Homo sapiens, UniProt P29320); details: EPHA3; 1 μM
[27] = target: broad panel of kinases (Plasmodium falciparum, UniProt P61075)
[28] = target: broad panel of kinases (Homo sapiens, UniProt O00750); details: PIK3C2B; 1 μM
[29] = target: broad panel of kinases (Homo sapiens, UniProt Q9UL54); details: TAOK2; 1 μM
[30] = target: broad panel of kinases (Homo sapiens, UniProt Q9H422); details: HIPK3; 1 μM
[31] = target: broad panel of kinases (Homo sapiens, UniProt P54756); details: EPHA5; 1 μM
[32] = target: broad panel of kinases (Homo sapiens, UniProt Q15831); details: LKB1; 1 μM
[33] = target: broad panel of kinases (Homo sapiens, UniProt Q15759); details: p38-beta; 1 μM
[34] = target: broad panel of kinases (Homo sapiens, UniProt Q96PY6); details: NEK1; 1 μM
[35] = target: broad panel of kinases (Homo sapiens, UniProt Q15208); details: NDR1; 1 μM
[36] = target: broad panel of kinases (Homo sapiens, UniProt Q16584); details: MLK3; 1 μM
[37] = target: broad panel of kinases (Homo sapiens, UniProt O95835); details: LATS1; 1 μM

Chain of broad panel of kinases (Homo sapiens, UniProt Q9P289) (Q9P289 2-416 limits assumed): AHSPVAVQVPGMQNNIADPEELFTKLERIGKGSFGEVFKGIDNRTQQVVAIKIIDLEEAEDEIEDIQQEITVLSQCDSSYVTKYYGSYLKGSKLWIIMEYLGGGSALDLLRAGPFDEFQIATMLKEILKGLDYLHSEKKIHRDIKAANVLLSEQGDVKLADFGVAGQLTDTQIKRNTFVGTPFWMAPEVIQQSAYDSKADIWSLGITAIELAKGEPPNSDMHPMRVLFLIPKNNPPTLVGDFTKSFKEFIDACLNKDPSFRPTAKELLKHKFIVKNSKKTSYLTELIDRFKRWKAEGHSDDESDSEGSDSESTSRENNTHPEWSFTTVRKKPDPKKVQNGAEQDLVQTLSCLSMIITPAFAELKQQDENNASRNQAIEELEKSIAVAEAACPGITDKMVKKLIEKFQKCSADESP
Chain of broad panel of kinases (Homo sapiens, UniProt P10721, V559D) (P10721 26-976 V559D limits assumed): as the sequence (P10721 26-976 D816V limits assumed) above, with V534D, V791D counted along it

With C=CC(=O)N1CC[C@H](Nc2nc(CN3CCOCC3)cc(Nc3ncc(C(=O)Nc4c(C)cccc4C)s3)n2)C1 [Example I-2] the “percent of control binding remaining (lower = stronger binding)” value [1] was 100%, the “percent of control binding remaining (lower = stronger binding)” value [2] was 0% and the “percent of control binding remaining (lower = stronger binding)” value [3] was 86%. For the same compound, the “percent of control binding remaining (lower = stronger binding)” value [4] was 10%, the “percent of control binding remaining (lower = stronger binding)” value [5] was 3.7% and the “percent of control binding remaining (lower = stronger binding)” value [6] was 1.7%. For the same compound, the “percent of control binding remaining (lower = stronger binding)” value [7] was 67%, the “percent of control binding remaining (lower = stronger binding)” value [8] was 85% and the “% change compared to control” value [9] was 100%. For the same compound, the “percent of control binding remaining (lower = stronger binding)” value [10] was 100%, the “percent of control binding remaining (lower = stronger binding)” value [11] was 100% and the “percent of control binding remaining (lower = stronger binding)” value [12] was 100%. The “percent of control binding remaining (lower = stronger binding)” value [13] was 88%, the “percent of control binding remaining (lower = stronger binding)” value [14] was 99% and the “percent of control binding remaining (lower = stronger binding)” value [15] was 84%. For the same compound, the “percent of control binding remaining (lower = stronger binding)” value [16] was 94%, the “percent of control binding remaining (lower = stronger binding)” value [17] was 96% and the “percent of control binding remaining (lower = stronger binding)” value [18] was 91%. The “percent of control binding remaining (lower = stronger binding)” value [19] was 96%, the “percent of control binding remaining (lower = stronger binding)” value [20] was 100% and the “percent of control binding remaining (lower = stronger binding)” value [21] was 100%. The “percent of control binding remaining (lower = stronger binding)” value [22] was 96%, the “percent of control binding remaining (lower = stronger binding)” value [23] was 100% and the “percent of control binding remaining (lower = stronger binding)” value [24] was 7.6%. The “percent of control binding remaining (lower = stronger binding)” value [25] was 0.5%, the “percent of control binding remaining (lower = stronger binding)” value [26] was 47% and the “% change compared to control” value [27] was 100%. The “percent of control binding remaining (lower = stronger binding)” value [28] was 86%, the “percent of control binding remaining (lower = stronger binding)” value [29] was 65% and the “percent of control binding remaining (lower = stronger binding)” value [30] was 95%. For the same compound, the “percent of control binding remaining (lower = stronger binding)” value [31] was 0.95%, the “percent of control binding remaining (lower = stronger binding)” value [32] was 100% and the “percent of control binding remaining (lower = stronger binding)” value [33] was 62%. For the same compound, the “percent of control binding remaining (lower = stronger binding)” value [34] was 88%, the “percent of control binding remaining (lower = stronger binding)” value [35] was 63% and the “percent of control binding remaining (lower = stronger binding)” value [36] was 100%. For the same compound, the “percent of control binding remaining (lower = stronger binding)” value [37] was 100%.

In the case of C=CC(=O)N1CC[C@H](Nc2nccc(Nc3ncc(C(=O)Nc4c(C)cccc4C)s3)n2)C1 [Example I-3], the “percent of control binding remaining (lower = stronger binding)” value [1] is reported as 100%, the “percent of control binding remaining (lower = stronger binding)” value [2] is reported as 0% and the “percent of control binding remaining (lower = stronger binding)” value [3] is reported as 83%. For the same compound, the “percent of control binding remaining (lower = stronger binding)” value [4] was 45%, the “percent of control binding remaining (lower = stronger binding)” value [5] was 2.9% and the “percent of control binding remaining (lower = stronger binding)” value [6] was 14%. The “percent of control binding remaining (lower = stronger binding)” value [7] was 93%, the “percent of control binding remaining (lower = stronger binding)” value [8] was 85% and the “% change compared to control” value [9] was 100%. For the same compound, the “percent of control binding remaining (lower = stronger binding)” value [10] was 81%, the “percent of control binding remaining (lower = stronger binding)” value [11] was 100% and the “percent of control binding remaining (lower = stronger binding)” value [12] was 100%. The “percent of control binding remaining (lower = stronger binding)” value [13] was 84%, the “percent of control binding remaining (lower = stronger binding)” value [14] was 100% and the “percent of control binding remaining (lower = stronger binding)” value [15] was 100%. For the same compound, the “percent of control binding remaining (lower = stronger binding)” value [16] was 95%, the “% change compared to control” value [17] was 76% and the “percent of control binding remaining (lower = stronger binding)” value [18] was 84%. The “percent of control binding remaining (lower = stronger binding)” value [19] was 100%, the “percent of control binding remaining (lower = stronger binding)” value [20] was 96% and the “percent of control binding remaining (lower = stronger binding)” value [21] was 100%. For the same compound, the “percent of control binding remaining (lower = stronger binding)” value [22] was 94%, the “percent of control binding remaining (lower = stronger binding)” value [23] was 100% and the “percent of control binding remaining (lower = stronger binding)” value [24] was 12%. The “percent of control binding remaining (lower = stronger binding)” value [25] was 1.6%, the “percent of control binding remaining (lower = stronger binding)” value [26] was 49% and the “% change compared to control” value [27] was 100%. The “percent of control binding remaining (lower = stronger binding)” value [28] was 47%, the “percent of control binding remaining (lower = stronger binding)” value [29] was 67% and the “percent of control binding remaining (lower = stronger binding)” value [30] was 100%. The “percent of control binding remaining (lower = stronger binding)” value [31] was 0.85%, the “percent of control binding remaining (lower = stronger binding)” value [32] was 100% and the “percent of control binding remaining (lower = stronger binding)” value [33] was 63%. For the same compound, the “percent of control binding remaining (lower = stronger binding)” value [34] was 85%, the “percent of control binding remaining (lower = stronger binding)” value [35] was 74% and the “percent of control binding remaining (lower = stronger binding)” value [36] was 85%. The “percent of control binding remaining (lower = stronger binding)” value [37] was 93%.
